From paper PMC5917093, “Brain Transport Profiles of Ginsenoside Rb1 by Glucose Transporter 1: In Vitro and in Vivo” (Frontiers in Pharmacology, 2018)
Read-outs that look alike come from different tables or passages of the source.

Legend:
[1] = test system: rBMEC (primary cultured rat brain microvascular endothelial cells); test: Uptake of Rb1 by primary cultured rBMEC (time course, temperature, concentration dependence, Michaelis-Menten kinetics); assay type: in vitro ADME
Method: Isolation and culture of rat brain microvessel endothelial cells were operated according to previous studies with some modifications ([Liu et al., 2013]). The isolated rBMEC was seeded in cultured flasks coated with 2% gelatin and cultured in culture medium. The culture medium consisted of DMEM/F12 supplemented with 20% FBS, 2 mM L-glutamine, heparin (50 mg/L), 100 IU/mL penicillin, 100 μg/mL streptomycin, and NaHCO3 (0.5 g/L). On the first day after seeding, the culture medium was replaced, after which the culture medium was replaced every 2 days. At 5–6 days, the rBMEC was transferred to 6-well plates coated with gelatin and cultured in an incubator with a saturated humidity at 37°C in 5% CO2 and 95% air. Transport studies were performed when cells reached 100% confluency. The endothelial phenotype of the rBMEC was identified by staining for the endothelial cell marker vWF using a confocal laser scanning microscope (Leica TCS SP8).
When rBMEC was grown to 100% confluency in gelatin-coated 6-well plates, uptake experiments were performed. Briefly, the cultured cell monolayer was washed three times with 1 mL of pH 7.4 Hanks’ balanced salt solution (HBSS). The cultured rBMEC was pre-incubated for 30 min in 1 mL HBSS at 37 or 4°C. After pre-incubation, the HBSS solution was removed by suction, and HBSS (1 mL) containing 60 μg/mL Rb1 was added to initiate uptake. Then the cells were incubated at 37 or 4°C at a set time (5, 10, 15, 30, 60, 120, and 240 min). After the end of the incubation, the incubation solution was aspirated and the monolayers were carefully washed three times with 1 mL ice-cold HBSS to terminate the uptake. Then, 0.5 mL ultrapure water was added to each incubated well, and the material in the wells was frozen (at -80°C)/thawed (at room temperature) repeatedly four times to lyse cells. After the solubilized, the monolayer supernatants were collected and 10 μL was injected into LC–MS/MS to determine Rb1 concentration. The protein contents of the cell monolayers were measured by the method of Bradford using BSA as the standard ([Bradford, 1976]). Uptake was expressed as the cell-to-medium ratio (μL/mg protein or μL/mg protein/min) and termed the volume of distribution (Vd), obtained by dividing the uptake amount by the concentration of substrate in the transport medium. Vd is derived from the ratio of ng/mg protein to ng/μL buffer.
The uptake data were fitted to the above equation by nonlinear least-squares regression analysis with Graphpad Prism 5.0 software.
(§1) HPLC–MS/MS was composed by a Shimadzu LC-20A chromatographic system and an API 4000 mass spectrometer equipped with electrospray ionization (ESI) source system. MS/MS detection was performed on an API 4000 mass spectrometer using multiple reaction monitoring (MRM) mode by monitoring the fragmentation of m/z 1107.6 → 179.0 for Rb1 and m/z 779.4 → 345.2 for digoxin (IS). Chromatographic separations were carried out on a Shim-pack XD-ODS column (2.0 mm × 30 mm, 2.2 μm) with a Shim-pack GVD-ODS (2.0 mm × 5 mm, 4.6 μm) guard column (Shimadzu, Japan) at a flow rate of 0.28 mL/min using 10 mM acetic acid in water (phase A) and methanol (phase B) as mobile phase. A linear step gradient elution was performed as followed: phase B was increased from 45 to 90% within the first 3 min, and decreased to 45% within the next 3 min (total gradient time: 6 min). A 10 μL sample was injected into the system with the auto-sample conditioned at 4°C and column temperature maintained at 40°C.
The biological samples (100 μL) were placed in a 1.5 mL Eppendorf tube, and mixed with 10 μL IS solution (500 ng/mL) for 3 min by vortexing. The mixture was extracted with methanol (0.9 mL) by vortexing, and then centrifuged at 14,000 rpm for 5 min. The supernatant (0.8 mL) was transferred to a new 1.5 mL Eppendorf tube and evaporated to dryness under vacuum. The dried residue was reconstituted with 100 μL methanol, vortex-mixed for 30 s, and centrifuged at 14,000 rpm for 5 min. […]

[2] = Effect of phloretin on distribution of Rb1 in plasma and brain of normal rats; assay type: in vivo, rat; settings: Rb1 10 mg/kg i.v.; for concentration at 0.5 h / concentration at 2 h / concentration at 6 h: rat
Method: Rats were randomly divided into two groups in 36 of each group. One group served as the control and another group were treated with phloretin. Dose of phloretin was set to be 5 mg/kg. Rb1 (10 mg/kg, i.v.) was administered to the experimental rats after i.v. administration of phloretin or saline for consecutive 1 week. Six rats from each group were selected and the blood samples were collected into heparinized Eppendorf tubes via the abdominal aorta at 0.5, 2, and 6 h after Rb1 administration. Then, brain samples were immediately collected. The plasma samples were obtained by centrifuging at 1000 × g for 10 min. Plasma and brain samples were frozen at -80°C until analysis.
as §1
The biological samples (100 μL) were placed in a 1.5 mL Eppendorf tube, and mixed with 10 μL IS solution (500 ng/mL) for 3 min by vortexing. The mixture was extracted with methanol (0.9 mL) by vortexing, and then centrifuged at 14,000 rpm for 5 min. The supernatant (0.8 mL) was transferred to a new 1.5 mL Eppendorf tube and evaporated to dryness under vacuum. The dried residue was reconstituted with 100 μL methanol, vortex-mixed for 30 s, and centrifuged at 14,000 rpm for 5 min. Finally, 10 μL of the supernatant liquid was immediately subjected to HPLC–MS/MS analysis. The system control and data analysis were performed by AB Sciex Analyst software (the software version: Analyst 1.5.1). Retention time for Rb1 was tR = 3.80 ± 0.01 min and for IS digoxin tR = 3.13 ± 0.01 min. The lowest limits of quantitation of Rb1 in cell lysate, plasma, and brain homogenate were 1, 2.5, and 1 ng/mL, respectively. The recoveries were higher than 90%; the relative standard deviations (SD) of intra-day and inter-day were lower than 10%.

[3] = set-up: method as in Li et al., 2007; settings: rats, TPNS injection 10.0 mg/kg intravenous; ref Li et al., 2007; cited from earlier work
[4] = 7.5-960 μg/mL Rb1, 37°C, 120 min, Michaelis-Menten fit

CC(C)=CCC[C@](C)(O[C@@H]1O[C@H](CO[C@@H]2O[C@H](CO)[C@@H](O)[C@H](O)[C@H]2O)[C@@H](O)[C@H](O)[C@H]1O)[C@H]1CC[C@]2(C)[C@@H]1[C@H](O)C[C@@H]1[C@@]3(C)CC[C@H](O[C@@H]4O[C@H](CO)[C@@H](O)[C@H](O)[C@H]4O[C@@H]4O[C@H](CO)[C@@H](O)[C@H](O)[C@H]4O)C(C)(C)[C@@H]3CC[C@]12C [Rb1, Ginsenoside Rb1]
intracellular amounts of Rb1 at 37°C relative to 4°C ([1]; 60 μg/mL Rb1): about two to threefold | time at which steady-state uptake occurred ([1]; 60 μg/mL Rb1, 37°C): 120 min | Km [1, 4]: 119 ± 15.6 µM | Vmax of Rb1 uptake [1, 4]: 0.0034 ± 0.0003 nmol/(mg protein ⋅ min) | nonsaturable component (Pdiff) of Rb1 transport ([1]; 37°C): 0.0023 μL/(mg protein ⋅ min) | share of total Rb1 uptake accounted for by the saturable component ([1]; low concentration range): 90% | Brain-to-plasma concentration ratio (Kp) ([2]; 0.5 h, phloretin-treated (5 mg/kg i.v., 1 week)): 2.15 ± 0.19 μL/g brain | Brain-to-plasma concentration ratio (Kp) ([2]; 0.5 h, untreated normal rats): 7.09 ± 1.01 μL/g brain | Brain-to-plasma concentration ratio (Kp) ([2]; 2 h, phloretin-treated (5 mg/kg i.v., 1 week)): 2.56 ± 0.06 μL/g brain | Brain-to-plasma concentration ratio (Kp) ([2]; 2 h, untreated normal rats): 4.9 ± 0.35 μL/g brain | Brain-to-plasma concentration ratio (Kp) ([2]; 6 h, phloretin-treated (5 mg/kg i.v., 1 week)): 1.59 ± 0.005 μL/g brain | Brain-to-plasma concentration ratio (Kp) ([2]; 6 h, untreated normal rats): 3.24 ± 0.53 μL/g brain | concentration at 0.5 h ([2]; brain, intravenous, 0.5 h, phloretin-treated (5 mg/kg i.v., 1 week), read-out: Brain concentration): 105 ± 15.1 ng/g | concentration at 2 h ([2]; brain, intravenous, 2 h, phloretin-treated (5 mg/kg i.v., 1 week), read-out: Brain concentration): 84.8 ± 4.1 ng/g | concentration at 6 h ([2]; brain, intravenous, 6 h, phloretin-treated (5 mg/kg i.v., 1 week), read-out: Brain concentration): 39.9 ± 4.9 ng/g | concentration at 0.5 h ([2]; brain, iv, 0.5 h, untreated normal rats, read-out: Brain concentration): 490 ± 58.3 ng/g | concentration at 2 h ([2]; brain, iv, 2 h, untreated normal rats, read-out: Brain concentration): 194 ± 11.1 ng/g | concentration at 6 h ([2]; brain, iv, 6 h, untreated normal rats, read-out: Brain concentration): 114 ± 24 ng/g | concentration at 0.5 h ([2]; plasma, intravenous, 0.5 h, phloretin-treated (5 mg/kg i.v., 1 week), read-out: Plasma concentration): 48.7 ± 2.9 µg/mL | concentration at 2 h ([2]; plasma, intravenous, 2 h, phloretin-treated (5 mg/kg i.v., 1 week), read-out: Plasma concentration): 33.2 ± 1.4 µg/mL | concentration at 6 h ([2]; plasma, intravenous, 6 h, phloretin-treated (5 mg/kg i.v., 1 week), read-out: Plasma concentration): 27 ± 1.5 µg/mL | concentration at 0.5 h ([2]; plasma, iv, 0.5 h, untreated normal rats, read-out: Plasma concentration): 69.3 ± 4.5 µg/mL | concentration at 2 h ([2]; plasma, iv, 2 h, untreated normal rats, read-out: Plasma concentration): 39.7 ± 4.1 µg/mL | concentration at 6 h ([2]; plasma, iv, 6 h, untreated normal rats, read-out: Plasma concentration): 35.2 ± 3 µg/mL | duration in brain tissue [3]: ~24 h | largest content in brain tissue [3]: about 1.4 μg/g
